# Values joined by “and” are separate entries in the source; they are usually repeats but may differ in a detail not shown here. Equal entries are not always repeated. Toxic doses and inconclusive results are not listed.
# Test system: P388 leukemia ip, CD2F1 mice, survival T/C
# Experiment: NCI In Vivo Anticancer Drug Screen. Data for tumor model P388 Leukemia (intraperitoneal) in CD2F1 (CDF1) mice
# Conditions: endpoint: median survival time, higher = longer survival
# In short: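 Mice carrying the transplanted tumor received test compound or vehicle. Survival was recorded in each group, and the value is the treated-group measurement divided by that of the vehicle-treated control group.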
# [1] = dose: 6.25 mg/kg/injection, schedule: Q01DX009 (ip), vehicle: saline
# [2] = dose: 12.5 mg/kg/injection, schedule: Q01DX009 (ip), vehicle: saline
# [3] = dose: 25.0 mg/kg/injection, schedule: Q01DX009 (ip), vehicle: saline
# [4] = dose: 25.0 mg/kg/injection, schedule: Q01DX009 (ip), vehicle: saline with Tween-80
# [5] = dose: 50.0 mg/kg/injection, schedule: Q01DX009 (ip), vehicle: saline with Tween-80
# [6] = dose: 100.0 mg/kg/injection, schedule: Q01DX009 (ip), vehicle: saline with Tween-80
# [7] = dose: 200.0 mg/kg/injection, schedule: Q01DX009 (ip), vehicle: saline with Tween-80
# [8] = dose: 50.0 mg/kg/injection, schedule: Q01DX005 (ip), vehicle: saline with Tween-80
# [9] = dose: 100.0 mg/kg/injection, schedule: Q01DX005 (ip), vehicle: saline with Tween-80
# [10] = dose: 200.0 mg/kg/injection, schedule: Q01DX005 (ip), vehicle: saline with Tween-80
# [11] = dose: 50.0 mg/kg/injection, schedule: Q01DX009 (ip), vehicle: Klucel (hydroxypropylcellulose) (HPC)
# [12] = dose: 100.0 mg/kg/injection, schedule: Q01DX009 (ip), vehicle: Klucel (hydroxypropylcellulose) (HPC)
# [13] = dose: 200.0 mg/kg/injection, schedule: Q01DX009 (ip), vehicle: Klucel (hydroxypropylcellulose) (HPC)
# [14] = dose: 100.0 mg/kg/injection, schedule: Q01DX009 (ip), vehicle: saline
# [15] = dose: 200.0 mg/kg/injection, schedule: Q01DX009 (ip), vehicle: saline
# [16] = dose: 50.0 mg/kg/injection, schedule: Q01DX009 (ip), vehicle: saline
# [17] = dose: 60.0 mg/kg/injection, schedule: Q01DX005 (ip), vehicle: saline with Tween-80
structure (smiles),measurement,setting,value
COc1ccc([N+](=O)[O-])cc1Nc1c2ccccc2nc2ccccc12,T/C,"dose: 50.0 mg/kg/injection, schedule: Q01DX009 (ip), vehicle: suspension in saline",100 % of control
same,T/C,"dose: 100.0 mg/kg/injection, schedule: Q01DX009 (ip), vehicle: suspension in saline",110 % of control
same,T/C,"dose: 200.0 mg/kg/injection, schedule: Q01DX009 (ip), vehicle: suspension in saline",101 % of control
CC(=O)NCC(O)CNC(C)=O,T/C,[1],103 % of control
same,T/C,[2],97 % of control
same,T/C,[3],95 % of control
CCc1ccc[n+](-c2nc3c([O-])n(C)c(=O)n(C)c-3n2)c1,T/C,"dose: 100.0 mg/kg/injection, schedule: Q04DX003 (ip), vehicle: saline",91 % of control
same,T/C,"dose: 200.0 mg/kg/injection, schedule: Q04DX003 (ip), vehicle: saline",100 % of control
same,T/C,"dose: 400.0 mg/kg/injection, schedule: Q04DX003 (ip), vehicle: saline",94 % of control
Nc1ccccc1SCc1ccccc1,T/C,[4],103 % of control
same,T/C,[5],100 % of control
same,T/C,[6],102 % of control
same,T/C,[7],108 % of control
CCCCN(CC(O)c1cc2c(c3ccccc13)CCCC2)c1ccc(OC)cc1 (stereo not given),T/C,[8],115 % of control
same,T/C,[9],101 % of control
same,T/C,[10],101 % of control
C=C(C)C1C/C=C(\C)CC/C=C(\C)CC/C=C(\C)CC1 (stereo not given),T/C,"dose: 18.75 mg/kg/injection, schedule: Q01DX009 (ip), vehicle: saline + Tween-80 + alcohol",93 % of control
same,T/C,"dose: 37.5 mg/kg/injection, schedule: Q01DX009 (ip), vehicle: saline + Tween-80 + alcohol",101 % of control
same,T/C,"dose: 75.0 mg/kg/injection, schedule: Q01DX009 (ip), vehicle: saline + Tween-80 + alcohol",102 % of control
same,T/C,"dose: 150.0 mg/kg/injection, schedule: Q01DX009 (ip), vehicle: saline + Tween-80 + alcohol",99 % of control
O=COCC(C(=O)O)c1ccccc1 (stereo not given),T/C,[8],102 % of control
same,T/C,[9],94 % of control
same,T/C,[10],95 % of control
Cc1nn(C(=O)c2ccncc2)c(C)c1N=Nc1ccc(S(=O)(=O)Nc2ccccn2)cc1,T/C,[11],100 % of control
same,T/C,[12],91 % of control
same,T/C,[13],92 % of control
C=CCN(CC=C)c1ncnc2[nH]ncc12,T/C,"dose: 100.0 mg/kg/injection, schedule: Q04DX003 (ip), vehicle: saline with Tween-80",100 % of control
same,T/C,"dose: 200.0 mg/kg/injection, schedule: Q04DX003 (ip), vehicle: saline with Tween-80",100 % of control
same,T/C,"dose: 400.0 mg/kg/injection, schedule: Q04DX003 (ip), vehicle: saline with Tween-80",100 % of control
CCOC(=O)CC(=O)C(C)(OCC)OCC,T/C,[14],157 % of control
same,T/C,[15],190 % of control
Clc1cccc2c(SCCCCCCSc3c4ccccc4nc4c(Cl)cccc34)c3ccccc3nc12,T/C,"dose: 60.0 mg/kg/injection, schedule: Q01DX005 (ip), vehicle: Klucel (hydroxypropylcellulose) (HPC)",92 % of control
same,T/C,"dose: 120.0 mg/kg/injection, schedule: Q01DX005 (ip), vehicle: Klucel (hydroxypropylcellulose) (HPC)",88 % of control
CCC1CN2C(=N1)c1ccccc1-c1cc(Cl)ccc12 (stereo not given),T/C,"dose: 5.0 mg/kg/injection, schedule: Q01DX009 (ip), vehicle: saline",106 % of control
same,T/C,[1],101 % of control and 102 % of control and 90 % of control
same,T/C,"dose: 10.0 mg/kg/injection, schedule: Q01DX009 (ip), vehicle: saline",121 % of control and 124 % of control
same,T/C,[2],103 % of control and 106 % of control and 97 % of control
same,T/C,"dose: 20.0 mg/kg/injection, schedule: Q01DX009 (ip), vehicle: saline",117 % of control
same,T/C,[3],101 % of control (2×) and 108 % of control
same,T/C,"dose: 40.0 mg/kg/injection, schedule: Q01DX009 (ip), vehicle: saline",156 % of control
same,T/C,[16],103 % of control and 123 % of control and 94 % of control
N#CC[n+]1ccccc1,T/C,[2],100 % of control
same,T/C,[3],100 % of control
same,T/C,[16],101 % of control
Nc1ccc(S(=O)(=O)c2ccc(Nc3ccnc4cc(Cl)ccc34)cc2)cc1,T/C,"dose: 50.0 mg/kg/injection, schedule: Q01DX005 (ip), vehicle: Klucel (hydroxypropylcellulose) (HPC)",100 % of control
same,T/C,"dose: 100.0 mg/kg/injection, schedule: Q01DX005 (ip), vehicle: Klucel (hydroxypropylcellulose) (HPC)",92 % of control
same,T/C,"dose: 200.0 mg/kg/injection, schedule: Q01DX005 (ip), vehicle: Klucel (hydroxypropylcellulose) (HPC)",90 % of control
CCOC(=O)NCCCBr,T/C,[5],105 % of control
same,T/C,[6],99 % of control
same,T/C,[7],107 % of control
Cc1c2[nH]c(C(=O)O)cc(=O)c2cc2c(=O)cc(C(=O)O)[nH]c12,T/C,[4],100 % of control
same,T/C,[5],99 % of control
same,T/C,[6],94 % of control
CC(=N)C(C#N)C(=S)S (stereo not given),T/C,[11],102 % of control
same,T/C,[12],86 % of control
same,T/C,[13],89 % of control
CC(C)C1=CC2=C(C(=O)C1=O)C13CCCC(C)(C)C1CC2OC3=O (stereo not given),T/C,"dose: 7.0 mg/kg/injection, schedule: Q01DX005 (ip), vehicle: saline with Tween-80",105 % of control
same,T/C,"dose: 14.0 mg/kg/injection, schedule: Q01DX005 (ip), vehicle: saline with Tween-80",104 % of control
same,T/C,"dose: 28.0 mg/kg/injection, schedule: Q01DX005 (ip), vehicle: saline with Tween-80",109 % of control
CCCCCCC(=O)/C=C/c1ccccc1OC(=O)/C=C/c1ccccc1,T/C,"dose: 50.0 mg/kg/injection, schedule: Q01DX005 (ip), vehicle: saline + alcohol",96 % of control
same,T/C,"dose: 100.0 mg/kg/injection, schedule: Q01DX005 (ip), vehicle: saline + alcohol",92 % of control
CC(=O)O[C@H]1CC[C@H]2[C@@H]3CCC4=CC(=O)CC[C@]4(C)[C@H]3[C@H](OC(C)=O)C[C@]12C,T/C,[6],95 % of control
same,T/C,[7],100 % of control
same,T/C,"dose: 400.0 mg/kg/injection, schedule: Q01DX009 (ip), vehicle: saline with Tween-80",90 % of control
COc1cc2cnc(-c3ccc(Cl)c(Cl)c3)c(O)c2cc1OC,T/C,[16],90 % of control
same,T/C,[14],102 % of control
same,T/C,[15],90 % of control
COC(=O)c1nnn(-c2ccc(C)c(C)c2)c1N,T/C,[17],90 % of control
same,T/C,"dose: 120.0 mg/kg/injection, schedule: Q01DX005 (ip), vehicle: saline with Tween-80",93 % of control
same,T/C,"dose: 240.0 mg/kg/injection, schedule: Q01DX005 (ip), vehicle: saline with Tween-80",94 % of control
O=C1CC2(CCCC2)C(=O)N1c1cccc(Cl)c1,T/C,"dose: 100.0 mg/kg/injection, schedule: Q01DX001 (ip), vehicle: Klucel (hydroxypropylcellulose) (HPC)",97 % of control
same,T/C,"dose: 200.0 mg/kg/injection, schedule: Q01DX001 (ip), vehicle: Klucel (hydroxypropylcellulose) (HPC)",100 % of control
same,T/C,"dose: 400.0 mg/kg/injection, schedule: Q01DX001 (ip), vehicle: Klucel (hydroxypropylcellulose) (HPC)",91 % of control
COc1ccc(CC(=O)O)cc1OC (tested in a mixture with another compound),T/C,"dose: 100.0 mg/kg/injection, schedule: Q01DX009 (ip), vehicle: saline sonified",100 % of control
same,T/C,"dose: 200.0 mg/kg/injection, schedule: Q01DX009 (ip), vehicle: saline sonified",100 % of control
same,T/C,"dose: 400.0 mg/kg/injection, schedule: Q01DX009 (ip), vehicle: saline sonified",100 % of control
COC(=O)C1O[C@H]1c1cccc[n+]1[O-] (mixture of isomers),T/C,"dose: 25.0 mg/kg/injection, schedule: Q01DX005 (ip), vehicle: water",102 % of control
same,T/C,"dose: 50.0 mg/kg/injection, schedule: Q01DX005 (ip), vehicle: water",101 % of control
same,T/C,"dose: 100.0 mg/kg/injection, schedule: Q01DX005 (ip), vehicle: water",101 % of control
same,T/C,"dose: 200.0 mg/kg/injection, schedule: Q01DX005 (ip), vehicle: water",103 % of control
Clc1cccc(NCNC2Nc3ccccc3N2)c1,T/C,"dose: 15.0 mg/kg/injection, schedule: Q01DX005 (ip), vehicle: saline with Tween-80",96 % of control
same,T/C,"dose: 30.0 mg/kg/injection, schedule: Q01DX005 (ip), vehicle: saline with Tween-80",97 % of control
same,T/C,[17],93 % of control
CCOC1N(c2ccc(Cl)cc2)CN(C)CC1(C)C (stereo not given),T/C,[5],117 % of control
same,T/C,[6],120 % of control
